Test results reported in article PMC9050674, “Structure-based inhibitor design for reshaping bacterial morphology” (Communications Biology, 2022).
Values joined by “and” are separate entries in the source; they are usually repeats but may differ in a detail not shown here. Equal values may be shown once.

Assays:
Pgp3 S169A = target: T1, Pgp3 S169A (Campylobacter jejuni, UniProt Q0P921, S169A); assay: ITC with Pgp3 S169A variant; type: binding, C. jejuni
T1 sequence (Q0P921 21-273 S169A): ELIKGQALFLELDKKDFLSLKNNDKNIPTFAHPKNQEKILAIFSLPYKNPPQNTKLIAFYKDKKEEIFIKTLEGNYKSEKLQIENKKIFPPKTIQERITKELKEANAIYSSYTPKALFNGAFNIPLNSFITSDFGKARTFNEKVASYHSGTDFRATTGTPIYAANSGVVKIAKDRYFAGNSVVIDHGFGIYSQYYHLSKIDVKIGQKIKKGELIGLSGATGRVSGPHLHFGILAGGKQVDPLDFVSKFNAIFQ
Procedure: (§1) To evaluate the contributions of the three residues (Ser169, Arg195, and His216) to binding of BMK-S101, they were substituted to Ala, and the effect of each mutation was evaluated using ITC (Fig. 2d and Supplementary Fig. 1).
(§2) The gene encoding the amino-acid sequence of Glu21–Gln273 of Pgp3 from C. jejuni (strain ATCC 33560) was cloned into the expression vector pET-21a (Novagen) producing the recombinant wild-type Pgp3 protein with the C-terminal His6-tag ([…]). The protein expression and purification were conducted according to previously described methods with exception. The HiTrap chelating HP (GE Healthcare) column was washed with the lysis buffer containing 60 mM imidazole and the protein was eluted with a linear gradient from 100 to 500 mM imidazole. The protein was further purified by gel filtration on a HiLoad 16/60 Superdex 200 prep-grade column (GE Healthcare), which was previously equilibrated with 20 mM Tris-HCl pH 8.0 and 200 mM NaCl. The fractions containing the Pgp3 protein were pooled and concentrated to 15 mg mL^−1 for crystallization. The variants of Pgp3 (S169A, R195A, H216A, and H247A) were generated by site-directed mutagenesis using primer sets in Supplementary Table 1 and were purified as described for the WT Pgp3. […]

Pgp3 H216A = target: T2, Pgp3 H216A (Campylobacter jejuni, UniProt Q0P921, H216A); assay: ITC with Pgp3 H216A variant; type: binding, C. jejuni
T2 sequence (Q0P921 21-273 H216A): T1 sequence (Q0P921 21-273 S169A)
Procedure: as §1, §2

C. jejuni ATCC 33560 WT = assay: Cell morphology change monitored by TEM; type: cell-based, Campylobacter jejuni; settings: 37 °C, 24 h; for minimum concentration causing morphological changes (helical to curved-rod): KL-L9P used for improved permeability
Description: Next, we investigated whether our inhibitors could transform C. jejuni from the helical- to curved-rod morphology on exposure to the inhibitors (Fig. 5). […] To investigate the effect of inhibitors on the morphology of C. jejuni cells, we exposed the cells to the inhibitors and checked whether the morphology could be altered.
Cell-morphology change of C. jejuni upon inhibitor treatment was monitored, as described previously with modifications. Briefly, overnight cultures of C. jejuni were harvested from MH agar plates and suspended in MH broth to approximately 1 × 10^6 colony-forming unit (CFU)/mL. A total of 500 μL of the diluted bacterial culture was added into each well of a 24-well plate with 5 μL of two-fold serial dilutions of inhibitor. For the control strain with no inhibitor, the same volume of dilution buffer (20 mM Tris-HCl pH 8.0 and 200 mM NaCl) was used. The plate was incubated under a micro-aerobic condition at 37 °C for 24 h in the static condition. After incubation, 10 μL of the bacterial cultures was placed on formvar/carbon-coated copper grids (200 mesh) and negatively stained with 2% uranyl acetate for 2 s.

Pgp3 R195A = target: T3, Pgp3 R195A (Campylobacter jejuni, UniProt Q0P921, R195A); assay: ITC with Pgp3 R195A variant; type: binding, C. jejuni
T3 sequence (Q0P921 21-273 R195A): T1 sequence (Q0P921 21-273 S169A)
Procedure: as §1, §2

Pgp3 WT = Pgp3 WT (Campylobacter jejuni, UniProt Q0P921); assay: Isothermal-titration calorimetry (ITC) with Pgp3 WT; type: binding, C. jejuni
Procedure: (§3) The gene encoding the amino-acid sequence of Glu21–Gln273 of Pgp3 from C. jejuni (strain ATCC 33560) was cloned into the expression vector pET-21a (Novagen) producing the recombinant wild-type Pgp3 protein with the C-terminal His6-tag ([…]). The protein expression and purification were conducted according to previously described methods with exception. The HiTrap chelating HP (GE Healthcare) column was washed with the lysis buffer containing 60 mM imidazole and the protein was eluted with a linear gradient from 100 to 500 mM imidazole. The protein was further purified by gel filtration on a HiLoad 16/60 Superdex 200 prep-grade column (GE Healthcare), which was previously equilibrated with 20 mM Tris-HCl pH 8.0 and 200 mM NaCl. The fractions containing the Pgp3 protein were pooled and concentrated to 15 mg mL^−1 for crystallization. The variants of Pgp3 (S169A, R195A, H216A, and H247A) were generated by site-directed mutagenesis using primer sets in Supplementary Table 1 and were purified as described for the WT Pgp3.
(§4) Using a micro-syringe, 2.5 μL of each inhibitor (2.25 mM) was added at intervals of 200 s to the Pgp3 solution in the cell with gentle stirring (125 rpm). The same ITC condition was applied to evaluate the KD values of BMK-S101 for each Pgp3 variant. All data were fitted to the single-binding-site model. Fitted curves were generated using GraphPad Prism 7. Data are mean ± SEM from triplicate experiments and the ITC thermograms are representative of triplicate experiments.

C. jejuni (ATCC 33560) = assay: Drug accumulation assay (LC-MS); settings: for µM (concentration in LC-MS sample): single replicates (First, Second, Third), total volume 200 (r6-r19) or 100 (r23-r30); for µM (concentration in LC-MS sample) / nmol/1011 CFUs / Total nmol: source data Fig. 5b; for nmol/1011 CFUs / Total nmol: single replicates; for Total nmol: total volume 200 or 100
Procedure: The accumulation assay was adapted from two different methods[42],[43]. […] The culture was grown overnight at 42 °C under the micro-aerobic condition. The cells were harvested at 6000 g for 15 min and washed with 1 × PBS, followed by resuspension in pre-warmed 1 × PBS to ~10^10 CFU/mL. The cell suspension (1.2 mL) was dispensed into a 24-well plate. Each compound to be examined was added into each well (final concentration = 100 μM). […] After incubation with shaking at 37 °C for 20 min, OD600 of each sample was measured, and the cells were harvested at 6000 g for 10 min at 4 °C. The pellets were resuspended in 250 μL of water, followed by three cycles of Freeze-Thaw with a dry ice/ethanol bath and a 37 °C-heating block in order to extract the compounds from C. jejuni. The cells were pelleted at 13,000 g for 5 min at room temperature. The supernatants (220 μL) were transferred to new tubes. The pellets were resuspended in 100 μL of methanol with vigorous vortexing for 1 min, followed by pelleting as before. The supernatants (100 μL) were combined with the solutions previously collected. The residual cell debris were removed at 20,000 g for 15 min at room temperature. The supernatants (300 μL) were dried with Genevac™ miVac Centrifugal Concentrator at room temperature for 5 h. Finally, the samples were resuspended with appropriate solvents and analyzed by LC-MS.
The suspension was centrifuged and the supernatant was analyzed by LC-MS. LC-MS systems consists of a Bruker impact II ultra-high resolution Qq-time-of-flight mass spectrometer using Hystar 5.0 SR1 software with a Waters Acquity UPLC H-Class system equipped with a quaternary solvent manager, a sample manager-FTN, and a photodiode array detector. The Bruker electrospray ionization source was operated in the positive ion mode, except for BMK-S301 (in the negative ion mode). […] A four-step 10-min LC gradient was as follows: 3 min at 98:2; 3 min to 85:15; 0.1 min to 98:2; 3.9 min at 98:2 for BMK-S101, -S203, and -S301. The ratio of the mobile phases (A = 0.1% formic acid in water, B = 0.1% formic acid in ACN) is given as A:B in LC gradients. […] The quantification was done by integrating the peak areas from extracted-ion chromatograms of corresponding m/z values of each compound.

Pgp3 = Pgp3 (Campylobacter jejuni, UniProt Q0P921); assay: biochemical; set-up: species or system C. jejuni
Procedure: Because DABCYL/FITC is a typical FRET quencher–fluorophore pair, an increase in fluorescent signals can be directly detected when it is processed by Pgp3 (Tang et al., 2013). The kinetic parameters (kcat = 0.0209 ± 0.0006 s^−1 and KM = 6.6 ± 0.7 µM) for the substrate were obtained by fitting the data to the Michaelis-Menten equation (Supplementary Fig. 8a).
The enzymatic assay for Pgp3 activity was determined using a fluorescein isothiocyanate (FITC) and 4′-([4′-(Dimethylamino)phenyl]-azo)-benzoic acid (DABCYL) pair for FRET. […] The excitation and emission spectra were set at 495 nm and 525 nm, respectively. Pgp3 (0.1 μM) in 20 mM HEPES pH 7.5, 200 mM NaCl, and 0.4 μM of zinc was used in this assay. The reaction was initiated by adding 3 μL of 0.015–2 mM substrate (final 1.56–200 μM) in the total volume of 30 μL of the reaction mixture. Initial velocities were calculated using slopes of fluorescence signal intensity in 3 min after the initiation of the reaction. In order to elucidate the inhibition mechanism of BMK-S301, initial velocities with various concentrations of substrates were measured in the presence of 40 μM BMK-S301. […] The same method was used for the determination of the IC50 values for inhibitors. Inhibitors in each concentration were pre-incubated with 0.1 μM of Pgp3 for 1 h on ice, and initial velocities were determined for 0.1, 10, 50, 100, 200, 500, and 1000 μM of each inhibitor in reaction with 10 μM of substrate. The IC50 values were calculated using GraphPad Prism 7.

Pgp3 H247A variant = assay: ITC with inactive Pgp3 H247A variant; type: binding, C. jejuni; settings: ITC at 298 K, Pgp3 H247A variant (used to prevent turnover of substrate)
Procedure: as §3
as §4, with “Data are mean ± SEM from triplicate experiments and the ITC thermograms are representative of triplicate experiments.” left out

[1] = target: Pgp3 H247A variant (peptidoglycan peptidase 3, Campylobacter jejuni, Glu21-Gln273) (C. jejuni (strain ATCC 33560)); assay: ITC
[2] = substrate turnover by Pgp3, Michaelis-Menten fit

CC(=O)N[C@@H](CCC[C@@H](NC(C)=O)C(=O)O)C(=O)N[C@H](C)C(=O)NO [BMK-S101]
Kd (Pgp3 S169A): 28.3 ± 5.8 µM
Kd (Pgp3 H216A): 10.4 ± 2.6 µM
concentrations without any detectable changes in the cell shape (C. jejuni ATCC 33560 WT): ≤ 156 µM
minimum concentration causing morphological changes (helical to curved-rod) (C. jejuni ATCC 33560 WT): > 313 μM
Kd (Pgp3 R195A): 17.8 ± 0.8 µM
Kd (Pgp3 WT): 2300 ± 800 nM

CC(=O)N[C@@H](CCN(CC(=O)O)Cc1ccccc1)C(=O)N[C@H](C)C(=O)NO [BMK-S201]
µM (concentration in LC-MS sample) (C. jejuni (ATCC 33560)): 0.024 µM and 0.040 µM and 0.056 µM
nmol/1011 CFUs (C. jejuni (ATCC 33560)): 0.60 nmol/1011 CFUs and 0.97 nmol/1011 CFUs and 1.37 nmol/1011 CFUs
Total nmol (C. jejuni (ATCC 33560)): 0.0048 nmol and 0.0079 nmol and 0.0112 nmol
Kd (Pgp3 WT): 1300 ± 100 nM

CC(=O)N[C@@H](CCNCC(=O)O)C(=O)N[C@H](C)C(=O)NO [BMK-S202]
minimum concentration causing morphological changes (helical to curved-rod) (C. jejuni ATCC 33560 WT): 25~50 μM
Kd (Pgp3 WT): 6600 ± 300 nM

CC(=O)N[C@@H](CCN(CC(=O)O)CC1CCCC1)C(=O)N[C@H](C)C(=O)NO [BMK-S203]
minimum concentration causing morphological changes (helical to curved-rod) (C. jejuni ATCC 33560 WT): 25~50 μM
intracellular concentration (accumulation) (C. jejuni (ATCC 33560); 100 μM compound, 37 °C, 20 min, LC-MS, mean): 0.3 ± 0.1 nmole/10^11 CFU
µM (concentration in LC-MS sample) (C. jejuni (ATCC 33560)): 0.0294 µM and 0.0222 µM and 0.0293 µM
nmol/1011 CFUs (C. jejuni (ATCC 33560)): 0.333 nmol/1011 CFUs and 0.240 nmol/1011 CFUs and 0.327 nmol/1011 CFUs
Total nmol (C. jejuni (ATCC 33560)): 0.00294 nmol and 0.00222 nmol and 0.00293 nmol
Kd (Pgp3 WT): 1800 ± 400 nM

NS(=O)(=O)c1ccc(CC(=O)NCC(=O)NO)cc1 [BMK-S302]
minimum concentration causing morphological changes (helical to curved-rod) (C. jejuni ATCC 33560 WT): 100 μM
Kd (Pgp3 WT): 9900 ± 1500 nM
IC50 (Pgp3): 244.6 ± 1.4 µM

NS(=O)(=O)c1ccc(-c2ccc(CC(=O)NO)cc2)cc1 [BMK-S303]
minimum concentration causing morphological changes (helical to curved-rod) (C. jejuni ATCC 33560 WT): 400 μM
Kd (Pgp3 WT): 1400 ± 400 nM
IC50 (Pgp3): 22.3 ± 1.5 µM

Ac-L-Ala^1-γ-D-Glu^2-mDAP^3-D-Ala^4−D-Ala^5 [pentapeptide]
Kd (Pgp3 H247A variant): 6.8 ± 0.3 µM

FITC-L-Ala^1-D-Glu^2-mDAP^3-D-Ala^4-L-Lys^5-DABCYL [FRET substrate, reference compound]
Km (Pgp3; [2]): 6.6 ± 0.7 µM
kcat (Pgp3; [2]): 0.0209 ± 0.0006 s⁻¹

pentapeptide (Ac-L-Ala1-γ-D-Glu2-mDAP3-D-Ala4-D-Ala5), peptidoglycan stem peptide
Kd [1]: 6.8 µM
